Reference: ChEMBL document CHEMBL2375297, “Coumarins hinged directly on benzimidazoles and their ribofuranosides to inhibit hepatitis C virus” (Eur J Med Chem, 2013)

What was measured:
[1] = Selectivity index, ratio of CC50 for human Huh5-2 cells to EC50 for Hepatitis C virus genotype 1b infected in human Huh5-2 cells; assay type: toxicity, cell-based, Huh-5-2; conditions: read-out: Ratio CC50/EC50
Hepatitis C virus = test: Antiviral activity against Hepatitis C virus genotype 1b infected in human Huh5-2 cells assessed as luciferase activity after 4 days by Steady-Glo luciferase assay; assay type: functional, organism-based, Hepacivirus hominis; conditions: Huh-5-2, 96 h
[2] = Cytostatic activity against human Huh5-2 cells after 3 days by MTS method; assay type: cell-based, Huh-5-2

SMILES	selectivity ratio [1]	EC50 (Hepatitis C virus)	CC50 at 72 h [2]
COc1cccc2cc(-c3nc4ccc(C)cc4[nH]3)c(=O)oc12	1	12 µM	12 µM
CC(=O)OC[C@H]1O[C@@H](n2c(-c3cc4ccccc4oc3=O)nc3ccccc32)[C@H](OC(C)=O)[C@@H]1OC(C)=O	1.6	60 µM	98 µM
CC(=O)OC[C@H]1O[C@@H](n2c(-c3c(C)c4ccccc4oc3=O)nc3ccccc32)[C@H](OC(C)=O)[C@@H]1OC(C)=O	1	941 µM	941 µM
COc1cccc2cc(-c3nc4cccnc4[nH]3)c(=O)oc12	2	84 µM	170 µM
Cc1ccc2[nH]c(-c3cc4c(ccc5ccccc54)oc3=O)nc2c1	14	5.5 µM	77 µM
O=c1oc2ccccc2cc1-c1nc2cc3ccccc3cc2[nH]1	1.3	105 µM	135 µM
O=C(O)c1ccc2[nH]c(-c3cc4ccc(I)cc4oc3=O)nc2c1	1	118 µM	118 µM
O=C(O)c1ccc2[nH]c(-c3cc4cc([N+](=O)[O-])ccc4oc3=O)nc2c1	1.5	6.9 µM	10 µM
O=C(O)c1ccc2[nH]c(-c3cc4ccccc4oc3=O)nc2c1	0.32	40 µM	13 µM
CC(=O)Oc1ccc2c(C)c(-c3nc4ccccc4[nH]3)c(=O)oc2c1	1	153 µM	153 µM
Cc1c(-c2nc3ccccc3[nH]2)c(=O)oc2ccccc12	0.66	40 µM	27 µM
Cc1c(-c2nc3cc(F)ccc3[nH]2)c(=O)oc2ccccc12	2.2	79 µM	170 µM
O=c1oc2ccccc2cc1-c1nc2cc(F)ccc2[nH]1	0.15	84 µM	13 µM
Cc1cc2nc(-c3cc4cc(Br)ccc4oc3=O)[nH]c2cc1C	4.3	40 µM	172 µM
Cc1cc2nc(-c3c(C)c4ccccc4oc3=O)[nH]c2cc1C	2	40 µM	77 µM
Cc1cc2nc(-c3cc4ccccc4oc3=O)[nH]c2cc1C	7.9	3 µM	23 µM
Cc1ccc2[nH]c(-c3c(C)c4ccccc4oc3=O)nc2c1	1	28 µM	29 µM
Cc1ccc2[nH]c(-c3cc4ccccc4oc3=O)nc2c1	1	2.3 µM	2.3 µM
O=c1oc2ccccc2cc1-c1nc2ccccc2n1[C@@H]1O[C@H](CO)[C@@H](O)[C@H]1O	6.4	20 µM	127 µM
Cc1c(-c2nc3ccccc3n2[C@@H]2O[C@H](CO)[C@@H](O)[C@H]2O)c(=O)oc2ccccc12	1.1	110 µM	122 µM
